This data set in a line: Solubility in cosmetic solvents (Cétiol LC, Crodamol DA). In kind it is physicochemical. The settings on record: solvent Cétinol LC; chromatographed product. The text has this: Bezüglich der Lipophilität sind die erfindungsgemässen Verbindungen I den eingangs genannten substituierten Triazinen überlegen, indem alle Verbindungen I das im vorliegenden Fall nötige Kriterium, nämlich eine hohe Löslichkeit in kosmetischen Lösungsmitteln wie z.B. Deltyl extra (Isopropylmyristat), Arlanol E (PPG 15-Stearylether), Cétiol LC (Cocoylcapylat/-caprat) oder Crodamol DA (Diisopropyladipat) erfüllen, wie die nachfolgend beispielhaft aufgeführten Verbindungen der Formel I und deren Löslichkeiten in Cetiol LC und/oder in Crodamol DA zeigen (Tabelle II).

Take `C[Si](C)(C)O[Si](C)(C)CCCCCOc1ccc(-c2nc(-c3ccc(OCCCCC[Si](C)(C)O[Si](C)(C)C)cc3O)nc(-c3ccc(OCCCCC[Si](C)(C)O[Si](C)(C)C)cc3O)n2)c(O)c1` [Beispiel 9-1]: the “Löslichkeit in Cétinol LC” value is greater than 35%.

As for `C[Si](C)(C)O[Si](C)(C)CCCCOc1ccc(-c2nc(-c3ccc(OCCCC[Si](C)(C)O[Si](C)(C)C)cc3O)nc(-c3ccc(OCCCC[Si](C)(C)O[Si](C)(C)C)cc3O)n2)c(O)c1` [Beispiel 10, 5,5',5''-Tris-[4-(1,1,1,3,3-pentamethyl-disiloxan-oxy)-butyl-1-oxy]-2,2',2''-(1.3.5)-triazin-2,4,6-triyl-tris-phenol], the “Löslichkeit in Cétinol LC” value was found to be 8%.

For the origin of these results see patent EP0863145A2, “Sunscreen compositions” (F. HOFFMANN-LA ROCHE AG, priority 1997, dated 1998).
